The text below walks through data of ChEMBL document CHEMBL3045603, “Synthesis and Microbiological Evaluation of Some N-Methyl Piperidone Oxime Ethers” (2005).

By MIC is commonly meant the lowest concentration that inhibits growth of the organism. High values mean a less susceptible organism, low ones a more susceptible organism.

Experiment [1] concerns Staphylococcus aureus. In words: Antibacterial activity against Staphylococcus aureus after 24 hr by two-fold serial dilution method. It counts as functional.
Experiment [2] has as its system Klebsiella pneumoniae. Description: Antibacterial activity against Klebsiella pneumoniae after 24 hr by two-fold serial dilution method. It counts as functional.
In experiment [3] the test system is Cryptococcus neoformans. In words: Antifungal activity against Cryptococcus neoformans after 72 to 96 hr by two-fold serial dilution method. It counts as functional.
Experiment [4] deals with Salmonella typhi. In words: Antibacterial activity against Salmonella enterica subsp. enterica serovar Typhi after 24 hr by two-fold serial dilution method. It counts as functional.
Experiment [5] has as its system Escherichia coli. Description: Antibacterial activity against Escherichia coli after 24 hr by two-fold serial dilution method. It is filed as functional.
For experiment [6], the system named is Candida albicans. Description: Antifungal activity against Candida albicans after 72 to 96 hr by two-fold serial dilution method. It is filed as functional.
Experiment [7] relates to Cryptococcus neoformans. Description: Ratio of amphotericin-B MIC to compound MIC for Cryptococcus neoformans. It is filed as functional.
The test system of experiment [8] is Aspergillus flavus. In words: Antifungal activity against Aspergillus flavus after 72 to 96 hr by two-fold serial dilution method. It is filed as functional.
Experiment [9] has as its system Rhizopus. Description: Antifungal activity against Rhizopus sp. after 72 to 96 hr by two-fold serial dilution method. It counts as functional.
The next experiment relates to Pseudomonas aeruginosa. Description: Antibacterial activity against Pseudomonas aeruginosa after 24 hr by two-fold serial dilution method. It is filed as functional.
For experiment [10], the system named is Aspergillus niger. In words: Ratio of amphotericin-B MIC to compound MIC for Aspergillus niger. It is filed as functional.
Experiment [11] has as its system Aspergillus niger. Description: Antifungal activity against Aspergillus niger after 72 to 96 hr by two-fold serial dilution method. It counts as functional.
Experiment [12] relates to Aspergillus flavus. Description: Antifungal activity against Aspergillus flavus at 200 ug/ml after 72 to 96 hr by two-fold serial dilution method. It counts as functional, organism-based.
Experiment [13] deals with Klebsiella pneumoniae. In words: Ratio of ciprofloxacin MIC to compound MIC for Klebsiella pneumoniae. It counts as functional.
For experiment [14], the system named is Staphylococcus aureus. In words: Ratio of ciprofloxacin MIC to compound MIC Staphylococcus aureus. It is filed as functional.
Experiment [15] relates to Salmonella typhi. Description: Ratio of ciprofloxacin MIC to compound MIC for Salmonella enterica subsp. enterica serovar Typhi. It counts as functional.
For experiment [16], the system named is Escherichia coli. Description: Ratio of ciprofloxacin MIC to compound MIC for Escherichia coli. It counts as functional.
The test system of experiment [17] is Candida albicans. In words: Antifungal activity against Candida albicans at 200 ug/ml after 72 to 96 hr by two-fold serial dilution method. It counts as functional, organism-based.
Experiment [18] has as its system Klebsiella pneumoniae. Description: Antibacterial activity against Klebsiella pneumoniae at 200 ug/mL after 24 hr by two-fold serial dilution method. It counts as functional, organism-based.
Experiment [19] has as its system Rhizopus. Description: Antifungal activity against Rhizopus sp. at 200 ug/ml after 72 to 96 hr by two-fold serial dilution method. It counts as functional, organism-based.

SMILES strings stand for the structures. ≈ marks a conversion by molar mass, not a printed value. Calls of active or inactive are those of the source. The rule behind the calls is not given here.

As to `Cc1ccc(C2C/C(=N/OCc3ccccc3)C(C)C(c3ccc(C)cc3)N2C)cc1` (centres undefined), the MIC stood at 50 µg/mL (≈ 121 µM) against Staphylococcus aureus [1]; 50 µg/mL (≈ 121 µM) with Klebsiella pneumoniae [2]; 12.5 µg/mL (≈ 30.3 µM) with Cryptococcus neoformans [3]; 50 µg/mL (≈ 121 µM) in the experiment on Salmonella typhi [4]; 50 µg/mL (≈ 121 µM) against Escherichia coli [5]; 50 µg/mL (≈ 121 µM) in the experiment on Candida albicans [6]. Also, the MIC amounted to 50 µg/mL (≈ 121 µM) in the experiment on Aspergillus flavus [8], 25 µg/mL (≈ 60.6 µM) against Rhizopus [9], 25 µg/mL (≈ 60.6 µM) in the experiment on Pseudomonas aeruginosa and 25 µg/mL (≈ 60.6 µM) against Aspergillus niger [11]. Also, the Ratio in the experiment on Cryptococcus neoformans [7] and with Aspergillus niger [10] was 2 throughout.

On to `Cc1ccc(C2CC(=NOCc3ccccc3)CC(c3ccc(C)cc3)N2C)cc1` (centres undefined), for which the MIC was found to be 100 µg/mL (≈ 251 µM) in the experiment with Staphylococcus aureus [1]; 100 µg/mL (≈ 251 µM) against Klebsiella pneumoniae [2]; 50 µg/mL (≈ 125 µM) in the experiment with Cryptococcus neoformans [3]; 100 µg/mL (≈ 251 µM) in the experiment with Salmonella typhi [4]; 50 µg/mL (≈ 125 µM) in the experiment with Escherichia coli [5]; 100 µg/mL (≈ 251 µM) with Candida albicans [6]. Also, the MIC is 100 µg/mL (≈ 251 µM) in the experiment with Aspergillus flavus [8], 50 µg/mL (≈ 125 µM) with Rhizopus [9], 100 µg/mL (≈ 251 µM) with Pseudomonas aeruginosa and 50 µg/mL (≈ 125 µM) against Aspergillus niger [11].

As for `O=C(O)c1cn(C2CC2)c2cc(N3CCNCC3)c(F)cc2c1=O` [CIPROFLOXACIN], the results for the MIC with Salmonella typhi [4] and against Escherichia coli [5] were 50 µg/mL (≈ 151 µM) and 25 µg/mL (≈ 75.4 µM), respectively.

For `CC(C)C1/C(=N\OCc2ccccc2)CC(c2ccccc2)N(C)C1c1ccccc1` (centres undefined), the minimum inhibitory concentration (MIC) came to 100 µg/mL (≈ 242 µM) in the experiment with Staphylococcus aureus [1]; 100 µg/mL (≈ 242 µM) against Klebsiella pneumoniae [2]; 25 µg/mL (≈ 60.6 µM) against Cryptococcus neoformans [3]; 50 µg/mL (≈ 121 µM) against Salmonella typhi [4]; 50 µg/mL (≈ 121 µM) against Escherichia coli [5]; 50 µg/mL (≈ 121 µM) in the experiment on Candida albicans [6]. Also, the figures for the MIC with Rhizopus [9], with Pseudomonas aeruginosa and with Aspergillus niger [11] were 200 µg/mL (≈ 485 µM), 50 µg/mL (≈ 121 µM) and 100 µg/mL (≈ 242 µM), respectively. Moreover, in the experiment with Aspergillus flavus [12], the inhibition entry is “inactive”.

For `COc1ccc(C2C/C(=N/OCc3ccccc3)C(C)C(c3ccc(OC)cc3)N2C)cc1` (centres undefined), the MIC in the experiment with Staphylococcus aureus [1] amounted to 12.5 µg/mL (≈ 28.1 µM); against Klebsiella pneumoniae [2], 25 µg/mL (≈ 56.2 µM); against Cryptococcus neoformans [3], 12.5 µg/mL (≈ 28.1 µM); in the experiment on Salmonella typhi [4], 50 µg/mL (≈ 112 µM); in the experiment with Escherichia coli [5] it was 25 µg/mL (≈ 56.2 µM); against Candida albicans [6] it was 25 µg/mL (≈ 56.2 µM). Also, the MIC against Aspergillus flavus [8] was determined as 25 µg/mL (≈ 56.2 µM); against Rhizopus [9], 12.5 µg/mL (≈ 28.1 µM); with Pseudomonas aeruginosa it was 12.5 µg/mL (≈ 28.1 µM); against Aspergillus niger [11] it was 25 µg/mL (≈ 56.2 µM). The Ratio with Klebsiella pneumoniae [13] and with Staphylococcus aureus [14] was 2 each time.

On to `C[C@@H]1[C@H](O)[C@@H](C)/C=C/C=C/C=C/C=C/C=C/C=C/C=C/[C@H](O[C@@H]2O[C@H](C)[C@@H](O)[C@H](N)[C@@H]2O)C[C@@H]2O[C@](O)(C[C@@H](O)C[C@@H](O)[C@H](O)CC[C@@H](O)C[C@@H](O)CC(=O)O[C@H]1C)C[C@H](O)[C@H]2C(=O)O` [AMPHOTERICIN B], for which the MIC against Cryptococcus neoformans [3] was found to be 25 µg/mL (≈ 27.1 µM); against Candida albicans [6] it was 25 µg/mL (≈ 27.1 µM); in the experiment on Aspergillus flavus [8] it was 50 µg/mL (≈ 54.1 µM); in the experiment on Rhizopus [9], 25 µg/mL (≈ 27.1 µM); in the experiment on Aspergillus niger [11] it was 50 µg/mL (≈ 54.1 µM).

For the compound `COc1ccc(C2CC(=NOCc3ccccc3)CC(c3ccc(OC)cc3)N2C)cc1` (centres undefined), the MIC in the experiment with Staphylococcus aureus [1] amounted to 50 µg/mL (≈ 116 µM); against Klebsiella pneumoniae [2], 100 µg/mL (≈ 232 µM); in the experiment with Cryptococcus neoformans [3], 50 µg/mL (≈ 116 µM); against Salmonella typhi [4], 50 µg/mL (≈ 116 µM); against Escherichia coli [5] it was 100 µg/mL (≈ 232 µM); in the experiment with Candida albicans [6], 100 µg/mL (≈ 232 µM). Besides, the MIC against Aspergillus flavus [8] came out at 50 µg/mL (≈ 116 µM); against Rhizopus [9], 50 µg/mL (≈ 116 µM); with Pseudomonas aeruginosa it was 100 µg/mL (≈ 232 µM); in the experiment with Aspergillus niger [11], 50 µg/mL (≈ 116 µM).

For the compound `CC1/C(=N\OCc2ccccc2)CC(c2ccc(Cl)cc2)N(C)C1c1ccc(Cl)cc1` (centres undefined), the MIC in the experiment on Staphylococcus aureus [1] worked out at 50 µg/mL (≈ 110 µM); against Klebsiella pneumoniae [2] it was 25 µg/mL (≈ 55.1 µM); in the experiment on Cryptococcus neoformans [3], 25 µg/mL (≈ 55.1 µM); with Salmonella typhi [4], 25 µg/mL (≈ 55.1 µM); in the experiment on Escherichia coli [5] it was 12.5 µg/mL (≈ 27.6 µM); in the experiment on Candida albicans [6] it was 100 µg/mL (≈ 221 µM). The MIC worked out at 50 µg/mL (≈ 110 µM) with Aspergillus flavus [8], 100 µg/mL (≈ 221 µM) against Rhizopus [9], 50 µg/mL (≈ 110 µM) with Pseudomonas aeruginosa and 25 µg/mL (≈ 55.1 µM) with Aspergillus niger [11]. Also, the Ratio with Salmonella typhi [15], in the experiment on Escherichia coli [16] and in the experiment on Klebsiella pneumoniae [13] was 1 each time.

As to `CN1C(c2ccccc2)CC(=NOCc2ccccc2)CC1c1ccccc1` (centres undefined), the MIC in the experiment with Staphylococcus aureus [1] came out at 200 µg/mL (≈ 540 µM); with Cryptococcus neoformans [3], 100 µg/mL (≈ 270 µM); in the experiment with Salmonella typhi [4], 100 µg/mL (≈ 270 µM); in the experiment on Escherichia coli [5] it was 200 µg/mL (≈ 540 µM); in the experiment on Pseudomonas aeruginosa, 100 µg/mL (≈ 270 µM); against Aspergillus niger [11] it was 100 µg/mL (≈ 270 µM). Also, the inhibition entry in the experiment on Candida albicans [17], with Klebsiella pneumoniae [18], in the experiment on Rhizopus [19] and with Aspergillus flavus [12] was “inactive” each time.

On to `CCC1/C(=N\OCc2ccccc2)CC(c2ccccc2)N(C)C1c1ccccc1` (centres undefined), for which the MIC against Staphylococcus aureus [1] was 100 µg/mL (≈ 251 µM); against Klebsiella pneumoniae [2], 200 µg/mL (≈ 502 µM); in the experiment on Cryptococcus neoformans [3] it was 50 µg/mL (≈ 125 µM); against Salmonella typhi [4], 50 µg/mL (≈ 125 µM); in the experiment with Escherichia coli [5] it was 100 µg/mL (≈ 251 µM); with Candida albicans [6], 100 µg/mL (≈ 251 µM). Also, the MIC in the experiment with Aspergillus flavus [8] is 100 µg/mL (≈ 251 µM); with Rhizopus [9] it was 100 µg/mL (≈ 251 µM); in the experiment with Pseudomonas aeruginosa, 25 µg/mL (≈ 62.7 µM); in the experiment on Aspergillus niger [11], 50 µg/mL (≈ 125 µM).

For `CC1/C(=N\OCc2ccccc2)CC(c2ccccc2)N(C)C1c1ccccc1` (centres undefined), the MIC in the experiment on Staphylococcus aureus [1] was 100 µg/mL (≈ 260 µM); against Cryptococcus neoformans [3] it was 100 µg/mL (≈ 260 µM); in the experiment on Salmonella typhi [4], 100 µg/mL (≈ 260 µM); against Escherichia coli [5], 100 µg/mL (≈ 260 µM); in the experiment on Candida albicans [6], 200 µg/mL (≈ 520 µM); in the experiment with Aspergillus flavus [8], 100 µg/mL (≈ 260 µM). Further, the MIC against Pseudomonas aeruginosa and against Aspergillus niger [11] was 50 µg/mL (≈ 130 µM) each time. Moreover, the inhibition entry with Klebsiella pneumoniae [18] and in the experiment on Rhizopus [19] was “inactive” in each case.

Regarding `CN1C(c2ccc(Cl)cc2)CC(=NOCc2ccccc2)CC1c1ccc(Cl)cc1` (centres undefined), the MIC against Staphylococcus aureus [1] worked out at 200 µg/mL (≈ 455 µM); in the experiment on Klebsiella pneumoniae [2] it was 100 µg/mL (≈ 228 µM); with Cryptococcus neoformans [3], 50 µg/mL (≈ 114 µM); against Salmonella typhi [4], 100 µg/mL (≈ 228 µM); in the experiment with Escherichia coli [5], 50 µg/mL (≈ 114 µM); against Candida albicans [6], 100 µg/mL (≈ 228 µM). The minimal inhibitory concentration (MIC) in the experiment on Aspergillus flavus [8] turned out to be 200 µg/mL (≈ 455 µM); with Rhizopus [9] it was 200 µg/mL (≈ 455 µM); against Pseudomonas aeruginosa, 100 µg/mL (≈ 228 µM); against Aspergillus niger [11], 100 µg/mL (≈ 228 µM).
